Values of other authors, collected in patent US20080247966A1, “Compositions and Methods to Counteract Oral Malodour” (GIVAUDAN SA, priority 2005, published 2008).

Test system: microorganisms such as yeasts
Conditions: oral care compositions with C1-C4 lower alcohols, WO 99/51093

CCCCCCCCO [octanol, octan-1-ol]
effect on microorganisms such as yeasts: no effect
